By Kd is commonly meant the constant that tells how readily two partners part at equilibrium.

The experiment concerns the target T1, ASGP receptor (biotinylated ASGPR) (Homo sapiens, UniProt P07306).
T1 construct: biotin (biotinylated)
T1 sequence (P07306 1-291): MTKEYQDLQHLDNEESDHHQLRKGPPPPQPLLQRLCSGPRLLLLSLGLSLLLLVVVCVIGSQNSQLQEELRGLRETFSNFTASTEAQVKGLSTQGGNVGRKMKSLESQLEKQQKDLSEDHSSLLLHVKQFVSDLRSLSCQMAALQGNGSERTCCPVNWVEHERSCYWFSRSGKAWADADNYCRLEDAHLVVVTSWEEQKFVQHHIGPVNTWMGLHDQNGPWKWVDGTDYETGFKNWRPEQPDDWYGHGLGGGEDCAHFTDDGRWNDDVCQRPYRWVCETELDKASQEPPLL
It counts as binding. The note with it: SPR, Biacore 8K, 25° C.; Table 1A; read-out: ASGPR KD. A general note: Surface plasmon resonance follows binding to a sensor surface in real time, without labels.

For the compound `O=C(NC[C@H]1OC[C@H](Nc2cncc(C(F)(F)F)n2)[C@@H](O)[C@H]1O)c1cc(C(F)(F)F)n[nH]1` [A29, N-(((2R,3R,4R,5S)-3,4-dihydroxy-5-((6-(trifluoromethyl)pyrazin-2-yl)amino)tetrahydro-2H-pyran-2-yl)methyl)-3-(trifluoromethyl)-1H-pyrazole-5-carboxamide], the equilibrium dissociation constant (Kd) was below 10 µM.

In the case of `O=C(O)COCC(=O)NC[C@H]1OC[C@H](Nc2cncc(C(F)(F)F)n2)[C@@H](O)[C@H]1O` [A30, 2-(2-((((2R,3R,4R,5S)-3,4-dihydroxy-5-((6-(trifluoromethyl)pyrazin-2-yl)amino)tetrahydro-2H-pyran-2-yl)methyl)amino)-2-oxoethoxy)acetic acid], the Kd was below 10 µM.

Take `O=C(O)c1ccc(N2CCC(CN3CCN(C[C@H]4OC[C@H](Nc5cncc(C(F)(F)F)n5)[C@@H](O)[C@H]4O)CC3)CC2)cc1` [A31, 4-(4-((4-(((2R,3R,4R,5S)-3,4-dihydroxy-5-((6-(trifluoromethyl)pyrazin-2-yl)amino)tetrahydro-2H-pyran-2-yl)methyl)piperazin-1-yl)methyl)piperidin-1-yl)benzoic acid]: the Kd was below 10 µM.

For the compound `O=C(O)C1CCC(C(=O)NC[C@H]2OC[C@H](Nc3cncc(C(F)(F)F)n3)[C@@H](O)[C@H]2O)CC1` (stereo partly drawn) [A32, 4-((((2R,3R,4R,5S)-3,4-dihydroxy-5-((6-(trifluoromethyl)pyrazin-2-yl)amino)tetrahydro-2H-pyran-2-yl)methyl)carbamoyl)cyclohexane-1-carboxylic acid], the dissociation constant Kd was below 10 µM.

`O=C(O)COCCOCCOCC(=O)NC[C@H]1OC[C@H](Nc2cncc(C(F)(F)F)n2)[C@@H](O)[C@H]1O` [A33]: the dissociation constant Kd is below 10 µM.

On to `O=C(O)c1ccc(C(=O)NC[C@H]2OC[C@H](Nc3cncc(C(F)(F)F)n3)[C@@H](O)[C@H]2O)cc1` [A34, 4-((((2R,3R,4R,5S)-3,4-dihydroxy-5-((6-(trifluoromethyl)pyrazin-2-yl)amino)tetrahydro-2H-pyran-2-yl)methyl)carbamoyl)benzoic acid], for which the Kd was below 10 µM.

In the case of `O=C(O)CNC(COCCC(=O)NCCOCCOCCOCCO[C@@H]1O[C@H](CO)[C@H](O)[C@H](O)[C@H]1Nc1cncc(C(F)(F)F)n1)COCCC(=O)NCCOCCOCCOCCO[C@@H]1O[C@H](CO)[C@H](O)[C@H](O)[C@H]1Nc1cncc(C(F)(F)F)n1` [A35, (1,35-bis(((2R,3R,4R,5R,6R)-4,5-dihydroxy-6-(hydroxymethyl)-3-((6-(trifluoromethyl)pyrazin-2-yl)amino)tetrahydro-2H-pyran-2-yl)oxy)-13,23-dioxo-3,6,9,16,20,27,30,33-octaoxa-12,24-diazapentatriacontan-18-yl)glycine], the Kd is below 10 µM.

For the compound `O=C(NC[C@H]1OC[C@H](Nc2cncc(C(F)(F)F)n2)[C@@H](O)[C@H]1O)c1ccccc1` [A36, N-(((2R,3R,4R,5S)-3,4-dihydroxy-5-((6-(trifluoromethyl)pyrazin-2-yl)amino)tetrahydro-2H-pyran-2-yl)methyl)benzamide], the Kd is below 10 µM.

As to `O[C@@H]1[C@H](O)[C@@H](Nc2cncc(C(F)(F)F)n2)CO[C@@H]1CNc1cccnn1` [A37, (2R,3R,4R,5S)-2-((pyridazin-3-ylamino)methyl)-5-((6-(trifluoromethyl)pyrazin-2-yl)amino)tetrahydro-2H-pyran-3,4-diol], the Kd is below 10 µM.

`O=C(O)c1ccc(-c2ccc(C(=O)NC[C@H]3OC[C@H](Nc4cncc(C(F)(F)F)n4)[C@@H](O)[C@H]3O)cc2)cc1` [A38, 4′-((((2R,3R,4R,5S)-3,4-dihydroxy-5-((6-(trifluoromethyl)pyrazin-2-yl)amino)tetrahydro-2H-pyran-2-yl)methyl)carbamoyl)-[1,1′-biphenyl]-4-carboxylic acid]: the Kd was below 10 µM.

As to `O=C(NC[C@H]1OC[C@H](Nc2cncc(C(F)(F)F)n2)[C@@H](O)[C@H]1O)c1cc(F)ccn1` [A39, N-(((2R,3R,4R,5S)-3,4-dihydroxy-5-((6-(trifluoromethyl)pyrazin-2-yl)amino)tetrahydro-2H-pyran-2-yl)methyl)-4-fluoropicolinamide], the Kd was below 10 µM.

For `O=C(NC[C@H]1OC[C@H](Nc2cncc(C(F)(F)F)n2)[C@@H](O)[C@H]1O)c1ncc[nH]1` [A40, N-(((2R,3R,4R,5S)-3,4-dihydroxy-5-((6-(trifluoromethyl)pyrazin-2-yl)amino)tetrahydro-2H-pyran-2-yl)methyl)-1H-imidazole-2-carboxamide], the equilibrium dissociation constant (Kd) was below 10 µM.

Take `O[C@@H]1[C@H](O)[C@@H](Nc2cncc(C(F)(F)F)n2)CO[C@@H]1CNc1ccnnc1` [A41, (2R,3R,4R,5S)-2-((pyridazin-4-ylamino)methyl)-5-((6-(trifluoromethyl)pyrazin-2-yl)amino)tetrahydro-2H-pyran-3,4-diol]: the dissociation constant (Kd) was below 10 µM.

`O=C(NC[C@H]1OC[C@H](Nc2cncc(C(F)(F)F)n2)[C@@H](O)[C@H]1O)c1n[nH]c2ccccc12` [A44, N-(((2R,3R,4R,5S)-3,4-dihydroxy-5-((6-(trifluoromethyl)pyrazin-2-yl)amino)tetrahydro-2H-pyran-2-yl)methyl)-1H-indazole-3-carboxamide]: the Kd was below 10 µM.

Take `NCCCCCC(=O)NC(COCCC(=O)NCCOCCOCCOCCOC[C@H]1OC[C@H](Nc2nccc(C(F)(F)F)n2)[C@@H](O)[C@H]1O)COCCC(=O)NCCOCCOCCOCCOC[C@H]1OC[C@H](Nc2nccc(C(F)(F)F)n2)[C@@H](O)[C@H]1O` [A45, 3,3′-((2-(6-aminohexanamido)propane-1,3-diyl)bis(oxy))bis(N-(1-((2R,3R,4R,5S)-3,4-dihydroxy-5-((4-(trifluoromethyl)pyrimidin-2-yl)amino)tetrahydro-2H-pyran-2-yl)-2,5,8,11-tetraoxatridecan-13-yl)propanamide)]: the equilibrium dissociation constant (Kd) was below 10 µM.

For `O=C(NC[C@H]1OC[C@H](Nc2cncc(C(F)(F)F)n2)[C@@H](O)[C@H]1O)c1cnco1` [A48, N-(((2R,3R,4R,5S)-3,4-dihydroxy-5-((6-(trifluoromethyl)pyrazin-2-yl)amino)tetrahydro-2H-pyran-2-yl)methyl)oxazole-5-carboxamide], the Kd is below 10 µM.

As for `O=C(NC[C@H]1OC[C@H](Nc2cncc(C(F)(F)F)n2)[C@@H](O)[C@H]1O)c1ccn[nH]1` [A49], the dissociation constant (Kd) is below 10 µM.

Take `O=C(NC[C@H]1OC[C@H](Nc2cncc(C(F)(F)F)n2)[C@@H](O)[C@H]1O)c1ncco1` [A50]: the Kd is below 10 µM.

As for `O=C(O)c1ccc2c(c1)C(F)(F)c1cc(C(=O)NC[C@H]3OC[C@H](Nc4cncc(C(F)(F)F)n4)[C@@H](O)[C@H]3O)ccc1-2` [A52], the Kd was below 10 µM.

For the compound `NCCOCCOCCOC[C@H]1OC[C@H](Nc2cncc(C(F)(F)F)n2)[C@@H](O)[C@H]1O` [A53, (2R,3R,4R,5S)-2-((2-(2-(2-aminoethoxy)ethoxy)ethoxy)methyl)-5-((6-(trifluoromethyl)pyrazin-2-yl)amino)tetrahydro-2H-pyran-3,4-diol], the Kd is below 10 µM.

Regarding `OC[C@H]1CC[C@H](Nc2nccc(C(F)(F)F)n2)[C@@H](O)[C@H]1O` [A54, (1R,2S,3R,6S)-3-(hydroxymethyl)-6-((4-(trifluoromethyl)pyrimidin-2-yl)amino)cyclohexane-1,2-diol], the equilibrium dissociation constant (Kd) was 10 to 100 µM.

As to `CC(NC[C@H]1OC[C@H](Nc2cncc(C(F)(F)F)n2)[C@@H](O)[C@H]1O)c1ncccn1` (stereo partly drawn) [A55, (2R,3R,4R,5S)-2-(((1-(pyrimidin-2-yl)ethyl)amino)methyl)-5-((6-(trifluoromethyl)pyrazin-2-yl)amino)tetrahydro-2H-pyran-3,4-diol], the equilibrium dissociation constant (Kd) is below 10 µM.

As for `O[C@@H]1[C@H](O)[C@@H](Nc2cncc(C(F)(F)F)n2)CO[C@@H]1COCCOCCNc1cnccn1` [A56, (2R,3R,4R,5S)-2-((2-(2-(pyrazin-2-ylamino)ethoxy)ethoxy)methyl)-5-((6-(trifluoromethyl)pyrazin-2-yl)amino)tetrahydro-2H-pyran-3,4-diol], the Kd is below 10 µM.

In the case of `NCCOCCOCC(=O)NC[C@H]1OC[C@H](Nc2cncc(C(F)(F)F)n2)[C@@H](O)[C@H]1O` [A57, 2-(2-(2-aminoethoxy)ethoxy)-N-(((2R,3R,4R,5S)-3,4-dihydroxy-5-((6-(trifluoromethyl)pyrazin-2-yl)amino)tetrahydro-2H-pyran-2-yl)methyl)acetamide], the dissociation constant Kd is below 10 µM.

Regarding `O[C@@H]1[C@H](O)[C@@H](Nc2cncc(C(F)(F)F)n2)CO[C@@H]1COc1cnccn1` [A60, (2R,3R,4R,5S)-2-((pyrazin-2-yloxy)methyl)-5-((6-(trifluoromethyl)pyrazin-2-yl)amino)tetrahydro-2H-pyran-3,4-diol], the dissociation constant Kd is below 10 µM.

On to `O[C@@H]1[C@H](O)[C@@H](Nc2cncc(C(F)(F)F)n2)CO[C@@H]1COc1ncccn1` [A61, (2R,3R,4R,5S)-2-((pyrimidin-2-yloxy)methyl)-5-((6-(trifluoromethyl)pyrazin-2-yl)amino)tetrahydro-2H-pyran-3,4-diol], for which the dissociation constant Kd is below 10 µM.

Regarding `O=C(O)CN1CCC(N2CCC(C(=O)NC[C@H]3OC[C@H](Nc4cncc(C(F)(F)F)n4)[C@@H](O)[C@H]3O)CC2)CC1` [A62, 2-(4-((((2R,3R,4R,5S)-3,4-dihydroxy-5-((6-(trifluoromethyl)pyrazin-2-yl)amino)tetrahydro-2H-pyran-2-yl)methyl)carbamoyl)-[1,4′-bipiperidin]-1′-yl)acetic acid], the equilibrium dissociation constant (Kd) was below 10 µM.

Regarding `O=C(NC[C@H]1OC[C@H](Nc2cncc(C(F)(F)F)n2)[C@@H](O)[C@H]1O)c1cccnc1` [A63, N-(((2R,3R,4R,5S)-3,4-dihydroxy-5-((6-(trifluoromethyl)pyrazin-2-yl)amino)tetrahydro-2H-pyran-2-yl)methyl)nicotinamide], the Kd is below 10 µM.

Consider `OC[C@H]1CC[C@H](Nc2cncc(C(F)(F)F)n2)[C@@H](O)[C@H]1O` [A65, (1R,2S,3R,6S)-3-(hydroxymethyl)-6-((6-(trifluoromethyl)pyrazin-2-yl)amino)cyclohexane-1,2-diol], for which the Kd is below 10 µM.

The record behind these values is patent US20260083851A1 (AVILAR THERAPEUTICS, INC., priority 2022, published 2026).
